From ChEMBL document CHEMBL1142070, “Antimicrobial susceptibility and synergy studies of Burkholderia cepacia complex isolated from patients with cystic fibrosis” (2007)
Converted amounts (≈) assume the structure as drawn.

Experiments:
Assay type in all cases: functional
Burkholderia cepacia [1] = assay: Antimicrobial activity against Burkholderia cepacia complex isolated from cystic fibrosis patient by broth microdilution assay
Burkholderia cepacia [2] = assay: Antimicrobial susceptibility of Burkholderia cepacia complex isolated from cystic fibrosis patient assessed as percent susceptible isolates
Burkholderia cepacia [3] = assay: Antimicrobial susceptibility of Burkholderia cepacia complex isolated from cystic fibrosis patient assessed as percent resistant isolates

| Structure (SMILES) | MIC50 (Burkholderia cepacia [1]) [µg/mL] | MIC90 (Burkholderia cepacia [1]) [µg/mL] | Activity (Burkholderia cepacia [2]) [%] | Activity (Burkholderia cepacia [3]) [%] |
| --- | --- | --- | --- | --- |
| C[C@H]1c2cccc(O)c2C(=O)C2=C(O)[C@]3(O)C(=O)C(C(N)=O)=C(O)[C@@H](N(C)C)[C@@H]3[C@@H](O)[C@@H]21.O [DOXYCYCLINE] | 16 | > 32 | 22 | 61 |
| O=C(N[C@H](CO)[C@H](O)c1ccc([N+](=O)[O-])cc1)C(Cl)Cl [CHLORAMPHENICOL] | 64 (≈ 198 µM) | > 64 | 5 | 85 |
| CC1(C)S[C@@H]2[C@H](NC(=O)[C@H](C(=O)O)c3ccsc3)C(=O)N2[C@H]1C(=O)O [TICARCILLIN] | – | – | 2 | – |
| CN(C)c1ccc(O)c2c1C[C@H]1C[C@H]3[C@H](N(C)C)C(O)=C(C(N)=O)C(=O)[C@@]3(O)C(O)=C1C2=O [MINOCYCLINE] | 8 (≈ 17.5 µM) | 32 (≈ 69.9 µM) | 38 | 37 |
| CCN1CCN(C(=O)N[C@@H](C(=O)N[C@@H]2C(=O)N3[C@@H]2SC(C)(C)[C@@H]3C(=O)O)c2ccccc2)C(=O)C1=O [PIPERACILLIN] | 256 (≈ 495 µM) | > 256 | 11 | 80 |
| CO/N=C(\C(=O)N[C@@H]1C(=O)N2C(C(=O)[O-])=C(C[N+]3(C)CCCC3)CS[C@H]12)c1csc(N)n1 [CEFEPIME] | – | – | 8 | – |
| C[C@@H](O)[C@H]1C(=O)N2C(C(=O)O)=C(S[C@@H]3CN[C@H](C(=O)N(C)C)C3)[C@H](C)[C@H]12 [MEROPENEM] | 8 (≈ 20.9 µM) | 32 (≈ 83.4 µM) | 26 | 48 |
| NCC[C@H](O)C(=O)N[C@@H]1C[C@H](N)[C@@H](O[C@H]2O[C@H](CN)[C@@H](O)[C@H](O)[C@H]2O)[C@H](O)[C@H]1O[C@H]1O[C@H](CO)[C@@H](O)[C@H](N)[C@H]1O [AMIKACIN] | – | – | 4 | – |
| C[C@@H](O)[C@H]1C(=O)N2C(C(=O)O)=C(SCCNC=N)C[C@H]12 [IMIPENEM ANHYDROUS] | – | – | 7 | – |
| CC(C)(O/N=C(\C(=O)N[C@@H]1C(=O)N2C(C(=O)[O-])=C(C[n+]3ccccc3)CS[C@H]12)c1csc(N)n1)C(=O)O [CEFTAZIDIME] | 32 (≈ 58.5 µM) | 128 (≈ 234 µM) | 23 | 65 |
| O=C(O)c1cn(C2CC2)c2cc(N3CCNCC3)c(F)cc2c1=O [CIPROFLOXACIN] | – | – | 5 | – |
| CO[C@H]1/C=C/O[C@@]2(C)Oc3c(C)c(O)c4c(O)c(c(/C=N/N5CCN(C)CC5)c(O)c4c3C2=O)NC(=O)/C(C)=C\C=C\[C@H](C)[C@H](O)[C@@H](C)[C@@H](O)[C@@H](C)[C@H](OC(C)=O)[C@@H]1C [RIFAMPIN] | – | – | 1 | – |
| C[C@H]1[C@H](NC(=O)/C(=N\OC(C)(C)C(=O)O)c2csc(N)n2)C(=O)N1S(=O)(=O)O [AZTREONAM] | – | – | 2 | – |
